Source: ChEMBL document CHEMBL5291721, “A preclinical secondary pharmacology resource illuminates target-adverse drug reaction associations of marketed drugs” (Nat Commun, 2023)

Key:
Thromboxane A2 receptor = target: T1, Thromboxane A2 receptor (Homo sapiens, UniProt P21731)
T1 sequence (P21731 whole entry): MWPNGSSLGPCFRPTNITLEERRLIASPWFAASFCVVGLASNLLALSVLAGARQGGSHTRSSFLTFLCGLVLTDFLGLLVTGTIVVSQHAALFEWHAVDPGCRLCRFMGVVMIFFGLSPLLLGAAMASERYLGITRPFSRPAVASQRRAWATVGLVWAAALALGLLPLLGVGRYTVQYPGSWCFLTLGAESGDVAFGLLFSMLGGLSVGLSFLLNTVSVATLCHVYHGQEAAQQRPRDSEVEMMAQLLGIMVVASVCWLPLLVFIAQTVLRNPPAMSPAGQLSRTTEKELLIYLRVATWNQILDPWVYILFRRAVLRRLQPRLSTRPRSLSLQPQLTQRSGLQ

Motilin receptor = Motilin receptor (Homo sapiens, UniProt O43193)
[1] = target: T2, 5-hydroxytryptamine receptor 1A (Homo sapiens, UniProt P08908); type: functional, cell-based
T2 sequence (P08908 whole entry): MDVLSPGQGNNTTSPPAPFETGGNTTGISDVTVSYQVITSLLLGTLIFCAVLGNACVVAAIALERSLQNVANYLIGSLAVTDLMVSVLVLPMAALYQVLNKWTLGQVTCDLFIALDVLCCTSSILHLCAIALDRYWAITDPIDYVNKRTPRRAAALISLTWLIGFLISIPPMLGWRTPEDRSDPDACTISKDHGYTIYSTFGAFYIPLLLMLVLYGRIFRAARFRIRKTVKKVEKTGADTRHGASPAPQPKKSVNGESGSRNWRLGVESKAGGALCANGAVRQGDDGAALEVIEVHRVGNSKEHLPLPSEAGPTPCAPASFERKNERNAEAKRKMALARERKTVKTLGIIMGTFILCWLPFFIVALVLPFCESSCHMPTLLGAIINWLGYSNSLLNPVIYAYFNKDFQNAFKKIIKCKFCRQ

[2] = target: 3',5'-cyclic-AMP phosphodiesterase 4D (Homo sapiens, UniProt Q08499); type: functional
[3] = target: T3, Alpha-1A adrenergic receptor (Homo sapiens, UniProt P35348); type: functional, cell-based
T3 sequence (P35348 whole entry): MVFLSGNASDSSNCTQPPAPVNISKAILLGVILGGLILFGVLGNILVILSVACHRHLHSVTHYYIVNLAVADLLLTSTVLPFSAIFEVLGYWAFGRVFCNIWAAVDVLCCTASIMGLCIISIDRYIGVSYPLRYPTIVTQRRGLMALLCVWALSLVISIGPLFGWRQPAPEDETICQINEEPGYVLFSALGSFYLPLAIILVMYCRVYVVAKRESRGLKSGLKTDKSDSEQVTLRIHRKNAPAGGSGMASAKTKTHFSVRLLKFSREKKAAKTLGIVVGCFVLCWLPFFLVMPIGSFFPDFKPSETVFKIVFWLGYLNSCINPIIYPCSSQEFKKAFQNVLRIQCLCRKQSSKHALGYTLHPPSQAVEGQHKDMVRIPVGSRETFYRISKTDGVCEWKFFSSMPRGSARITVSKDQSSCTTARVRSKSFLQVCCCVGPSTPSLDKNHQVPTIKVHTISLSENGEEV

[4] = target: T4, Neuropeptide Y receptor type 1 (Homo sapiens, UniProt P25929)
T4 sequence (P25929 whole entry): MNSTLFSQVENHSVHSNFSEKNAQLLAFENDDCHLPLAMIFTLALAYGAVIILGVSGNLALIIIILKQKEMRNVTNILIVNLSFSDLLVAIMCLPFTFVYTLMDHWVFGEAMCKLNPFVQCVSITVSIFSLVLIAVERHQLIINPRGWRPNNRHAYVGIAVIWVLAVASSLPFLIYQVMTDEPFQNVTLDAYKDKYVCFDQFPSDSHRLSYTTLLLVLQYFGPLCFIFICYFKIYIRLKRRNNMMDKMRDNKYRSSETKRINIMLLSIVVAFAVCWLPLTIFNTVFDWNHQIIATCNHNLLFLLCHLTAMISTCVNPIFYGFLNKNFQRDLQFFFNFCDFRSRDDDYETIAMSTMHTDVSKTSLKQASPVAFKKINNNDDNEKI

[5] = target: T2, 5-hydroxytryptamine receptor 1A; type: functional, cell-based; remark: listed apart in the source
Progesterone receptor = target: T5, Progesterone receptor (Homo sapiens, UniProt P06401); type: functional
T5 sequence (P06401 whole entry): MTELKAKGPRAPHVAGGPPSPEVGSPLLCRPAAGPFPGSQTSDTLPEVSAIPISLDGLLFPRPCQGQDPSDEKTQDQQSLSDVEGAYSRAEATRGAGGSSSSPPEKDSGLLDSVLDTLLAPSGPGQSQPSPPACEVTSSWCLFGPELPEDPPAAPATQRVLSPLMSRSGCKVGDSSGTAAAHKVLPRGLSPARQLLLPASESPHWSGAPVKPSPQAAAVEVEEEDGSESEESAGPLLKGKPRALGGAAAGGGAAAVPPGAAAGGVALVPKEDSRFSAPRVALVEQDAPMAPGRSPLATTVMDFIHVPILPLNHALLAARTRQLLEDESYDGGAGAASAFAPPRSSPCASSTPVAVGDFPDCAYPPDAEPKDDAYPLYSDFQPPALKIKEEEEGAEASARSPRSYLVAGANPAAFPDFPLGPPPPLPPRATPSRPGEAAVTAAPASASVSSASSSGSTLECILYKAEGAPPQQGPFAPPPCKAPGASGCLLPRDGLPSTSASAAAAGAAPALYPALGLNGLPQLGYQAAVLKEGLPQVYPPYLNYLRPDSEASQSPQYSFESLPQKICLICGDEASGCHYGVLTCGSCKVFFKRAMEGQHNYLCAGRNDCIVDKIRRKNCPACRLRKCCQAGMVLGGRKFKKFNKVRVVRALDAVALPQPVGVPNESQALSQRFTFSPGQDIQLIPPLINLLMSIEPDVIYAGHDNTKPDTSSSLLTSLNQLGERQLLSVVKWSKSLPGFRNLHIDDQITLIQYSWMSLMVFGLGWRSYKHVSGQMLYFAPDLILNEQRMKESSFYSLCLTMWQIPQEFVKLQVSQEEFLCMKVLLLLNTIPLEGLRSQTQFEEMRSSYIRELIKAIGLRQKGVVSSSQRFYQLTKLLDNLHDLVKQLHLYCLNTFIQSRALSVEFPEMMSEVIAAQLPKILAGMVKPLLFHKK

Vasopressin V1a receptor = Vasopressin V1a receptor (Homo sapiens, UniProt P37288)
[6] = target: Growth hormone secretagogue receptor type 1 (Homo sapiens, UniProt Q92847)
Histamine H3 receptor = Histamine H3 receptor (Homo sapiens, UniProt Q9Y5N1)
Also: assay procedure not described here.

Chain of Histamine H3 receptor (Q9Y5N1 whole entry): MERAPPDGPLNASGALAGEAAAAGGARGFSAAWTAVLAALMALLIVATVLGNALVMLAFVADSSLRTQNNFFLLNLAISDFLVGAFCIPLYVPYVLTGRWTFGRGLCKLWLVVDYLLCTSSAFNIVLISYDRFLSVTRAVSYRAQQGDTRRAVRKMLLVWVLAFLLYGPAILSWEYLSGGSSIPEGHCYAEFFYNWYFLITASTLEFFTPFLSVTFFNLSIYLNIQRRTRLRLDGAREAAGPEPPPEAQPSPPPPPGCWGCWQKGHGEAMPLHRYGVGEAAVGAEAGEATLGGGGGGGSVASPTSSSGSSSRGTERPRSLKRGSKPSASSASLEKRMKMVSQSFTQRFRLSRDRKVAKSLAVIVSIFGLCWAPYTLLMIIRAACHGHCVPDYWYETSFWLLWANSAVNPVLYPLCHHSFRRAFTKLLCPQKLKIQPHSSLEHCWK
Chain of Growth hormone secretagogue receptor type 1 (Q92847 whole entry): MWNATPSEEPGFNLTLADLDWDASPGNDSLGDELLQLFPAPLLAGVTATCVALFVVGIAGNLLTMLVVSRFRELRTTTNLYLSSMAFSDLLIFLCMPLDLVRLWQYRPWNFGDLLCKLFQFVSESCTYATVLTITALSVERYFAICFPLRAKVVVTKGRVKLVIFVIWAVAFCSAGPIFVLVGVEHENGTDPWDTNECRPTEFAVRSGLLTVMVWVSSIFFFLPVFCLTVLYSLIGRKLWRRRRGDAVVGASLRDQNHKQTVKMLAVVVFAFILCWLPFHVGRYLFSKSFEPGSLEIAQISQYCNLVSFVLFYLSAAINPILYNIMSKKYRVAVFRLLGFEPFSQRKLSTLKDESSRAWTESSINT
Chain of 3',5'-cyclic-AMP phosphodiesterase 4D (Q08499 whole entry): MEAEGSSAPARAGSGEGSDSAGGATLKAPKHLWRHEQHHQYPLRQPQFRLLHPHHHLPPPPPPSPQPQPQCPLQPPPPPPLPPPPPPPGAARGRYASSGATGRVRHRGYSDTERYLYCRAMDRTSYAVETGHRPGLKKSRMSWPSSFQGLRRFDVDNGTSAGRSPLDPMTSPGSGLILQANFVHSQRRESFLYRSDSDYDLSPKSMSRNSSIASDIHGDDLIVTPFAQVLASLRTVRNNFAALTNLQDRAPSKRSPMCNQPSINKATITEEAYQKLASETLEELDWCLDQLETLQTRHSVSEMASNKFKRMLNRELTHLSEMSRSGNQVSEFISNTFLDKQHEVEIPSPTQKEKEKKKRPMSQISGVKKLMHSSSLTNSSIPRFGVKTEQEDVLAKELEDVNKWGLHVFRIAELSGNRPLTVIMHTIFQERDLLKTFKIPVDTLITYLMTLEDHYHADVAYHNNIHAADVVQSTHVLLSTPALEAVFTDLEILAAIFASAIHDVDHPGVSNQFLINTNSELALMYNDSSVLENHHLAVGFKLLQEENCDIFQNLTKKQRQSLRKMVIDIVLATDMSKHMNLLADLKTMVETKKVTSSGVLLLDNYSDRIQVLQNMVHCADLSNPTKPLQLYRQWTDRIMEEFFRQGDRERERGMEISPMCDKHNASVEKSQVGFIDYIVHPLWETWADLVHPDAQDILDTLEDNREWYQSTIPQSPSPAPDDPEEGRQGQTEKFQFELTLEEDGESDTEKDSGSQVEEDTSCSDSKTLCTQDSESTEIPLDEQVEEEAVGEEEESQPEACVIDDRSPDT
Chain of Vasopressin V1a receptor (P37288 whole entry): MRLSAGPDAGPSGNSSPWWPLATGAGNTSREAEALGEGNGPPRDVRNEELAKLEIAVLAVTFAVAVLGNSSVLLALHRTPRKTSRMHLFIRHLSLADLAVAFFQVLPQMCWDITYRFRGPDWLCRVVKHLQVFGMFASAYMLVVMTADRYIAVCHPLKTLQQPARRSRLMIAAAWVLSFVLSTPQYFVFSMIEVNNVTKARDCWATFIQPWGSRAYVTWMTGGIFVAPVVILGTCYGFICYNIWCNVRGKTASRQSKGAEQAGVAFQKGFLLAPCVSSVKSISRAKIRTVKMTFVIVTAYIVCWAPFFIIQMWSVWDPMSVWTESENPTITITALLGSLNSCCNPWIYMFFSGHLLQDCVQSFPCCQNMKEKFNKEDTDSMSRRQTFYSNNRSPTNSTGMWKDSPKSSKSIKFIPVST
Chain of Motilin receptor (O43193 whole entry): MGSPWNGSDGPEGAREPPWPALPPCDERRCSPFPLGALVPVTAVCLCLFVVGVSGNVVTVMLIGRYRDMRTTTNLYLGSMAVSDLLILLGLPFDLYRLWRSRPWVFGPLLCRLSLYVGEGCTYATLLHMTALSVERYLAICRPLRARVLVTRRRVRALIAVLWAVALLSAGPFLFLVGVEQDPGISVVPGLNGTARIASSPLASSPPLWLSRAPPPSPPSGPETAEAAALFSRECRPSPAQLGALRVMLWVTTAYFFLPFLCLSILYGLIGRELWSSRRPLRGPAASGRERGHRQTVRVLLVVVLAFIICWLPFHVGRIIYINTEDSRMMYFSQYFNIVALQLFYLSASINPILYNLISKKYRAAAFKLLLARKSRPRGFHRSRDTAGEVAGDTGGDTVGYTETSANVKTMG

Row | SMILES | AC50 (Thromboxane A2 receptor) | AC50 (Motilin receptor) | AC50 [1] | AC50 [2] | AC50 [3] | AC50 [4] | AC50 [5] | AC50 (Progesterone receptor) | AC50 (Vasopressin V1a receptor) | AC50 [6] | AC50 (Histamine H3 receptor)
1 | CCOc1nc2cccc(C(=O)O)c2n1Cc1ccc(-c2ccccc2-c2nnn[nH]2)cc1 | > 10 µM | > 30 µM | > 30 µM | > 30 µM | > 30 µM | > 10 µM | > 30 µM | > 30 µM | > 30 µM | > 30 µM | > 30 µM
2 | CCCc1nc2c(C)cc(-c3nc4ccccc4n3C)cc2n1Cc1ccc(-c2ccccc2C(=O)O)cc1 | 18.1 µM | > 30 µM | > 30 µM | 7.1 µM | > 30 µM | > 30 µM | > 30 µM | > 30 µM | > 30 µM | > 30 µM | > 30 µM
3 | CCOc1cc([C@@H](CS(C)(=O)=O)N2C(=O)c3cccc(NC(C)=O)c3C2=O)ccc1OC |  | > 30 µM | > 30 µM |  | > 30 µM |  | > 30 µM | > 30 µM | > 30 µM | > 30 µM | > 30 µM
4 | CC(=O)Nc1ccc(CC(=O)O)cc1 [ACTARIT] | > 30 µM | > 30 µM | > 30 µM | > 30 µM | > 30 µM | > 30 µM | > 30 µM | > 30 µM | > 30 µM | > 30 µM | > 30 µM
5 | CC(C(=O)O)c1ccc2oc(-c3ccc(Cl)cc3)nc2c1 (stereo not drawn) [BENOXAPROFEN] | > 30 µM | > 30 µM | > 30 µM | > 30 µM | > 30 µM | > 30 µM | > 30 µM | > 30 µM |  | > 30 µM | > 30 µM
6 | CC1(C)S[C@@H]2[C@H](NC(=O)C(C(=O)O)c3ccccc3)C(=O)N2[C@H]1C(=O)O (stereo partly drawn) [CARBENICILLIN] |  | > 30 µM | > 30 µM | > 30 µM | > 30 µM | > 30 µM | > 30 µM | > 30 µM | > 30 µM | > 30 µM | > 30 µM
7 | Cc1nnc(SCC2=C(C(=O)O)N3C(=O)[C@@H](NC(=O)Cn4cnnn4)[C@H]3SC2)s1 [CEFAZOLIN] |  | > 300 µM | > 300 µM | > 300 µM | > 300 µM | > 30 µM | > 300 µM | > 300 µM | > 300 µM | > 300 µM | > 300 µM
8 | CC=CC1=C(C(=O)O)N2C(=O)[C@@H](NC(=O)[C@H](N)c3ccc(O)cc3)[C@H]2SC1 [CEFPROZIL] | > 30 µM | > 30 µM | > 30 µM | > 30 µM | > 30 µM | > 30 µM | > 30 µM | > 30 µM | > 30 µM | > 30 µM | > 30 µM
9 | Cc1nc(Nc2ncc(C(=O)Nc3c(C)cccc3Cl)s2)cc(N2CCN(CCO)CC2)n1 [DASATINIB] | > 10 µM | > 30 µM | > 30 µM | 28 µM | > 30 µM | > 30 µM | > 30 µM | > 30 µM | > 30 µM | > 30 µM | 12.7 µM
10 | CC(C)Cc1ccc([C@H](C)C(=O)O)cc1 [DEXIBUPROFEN] |  | > 30 µM | > 30 µM | > 30 µM | > 30 µM |  | > 30 µM | > 30 µM | > 30 µM | > 30 µM | > 30 µM
11 | Cc1onc(-c2c(F)cccc2Cl)c1C(=O)N[C@@H]1C(=O)N2[C@@H]1SC(C)(C)[C@@H]2C(=O)O [FLOXACILLIN] |  | > 30 µM | > 30 µM | > 30 µM | > 30 µM |  | > 30 µM | > 30 µM | > 30 µM | > 30 µM | > 30 µM
12 | COc1cc(C(C)=O)ccc1OCCCN1CCC(c2noc3cc(F)ccc23)CC1 [ILOPERIDONE] |  | > 30 µM | > 30 µM | > 30 µM | > 30 µM |  | 0.055 µM | > 30 µM | > 30 µM | > 30 µM | > 30 µM
13 | CNC(=C[N+](=O)[O-])NCCSCc1csc(CN(C)C)n1 [NIZATIDINE] | > 10 µM | > 10 µM | > 10 µM | > 30 µM |  | > 10 µM | > 10 µM | > 10 µM |  | > 10 µM | 
14 | CCCc1cc(=O)[nH]c(=S)[nH]1 [PROPYLTHIOURACIL] | > 10 µM | > 10 µM | > 10 µM | > 30 µM |  | > 10 µM | > 10 µM | > 10 µM | > 10 µM | > 10 µM | > 10 µM
15 | S=P(N1CC1)(N1CC1)N1CC1 [THIOTEPA] |  | > 30 µM | > 10 µM | > 30 µM | > 30 µM |  | > 10 µM | > 30 µM | > 30 µM | > 30 µM | > 30 µM
16 | CC(C)C[C@H](NC(=O)[C@@H](O)[C@H](N)Cc1ccccc1)C(=O)O [UBENIMEX] | > 30 µM |  | > 30 µM | > 30 µM | > 30 µM |  | > 30 µM | > 30 µM |  |  | 
